Measurements taken from BindingDB's records for doi:10.1016/0960-894X(95)00417-R (1995).

Assays:
[1] = Compound was tested for the inhibition of forskolin-stimulated adenylate cyclase at 5-hydroxytryptamine 1A receptor in guinea pig
[2] = Tested in vitro for receptor binding affinity to 5-hydroxytryptamine 1D receptor in bovine caudate using [3H]5-HT radioligand

CN1CCC[C@@H]1Cc1c[nH]c2ccc(-n3cnc4cc(C#N)ccc43)cc12 [CP-161242]
EC50 [1]: 26 nM | IC50 [2]: 1.3 nM

CN(C)CCc1c[nH]c2ccc(-n3cnc4cccnc43)cc12 [[2-(5-Imidazo[4,5-b]pyridin-3-yl-1H-indol-3-yl)-ethyl]-dimethyl-amine]
EC50 [1]: 460 nM | IC50 [2]: 11 nM
